US10072003B2, “Tetrahydronaphthyridine derivatives as mGluR2-negative allosteric modulators, compositions, and their use” (Merck Sharp & Dohme Corp., priority 2014, dated 2018)

molecular target: recombinant human mGluR2 (Homo sapiens (Human), UniProt Q14416); assay: FLIPR Ca2+ mobilization antagonist assay in CHO dhfr- cells expressing human mGluR2 and Gα16; type: cell-based; conditions: antagonist response after addition of 2,500 nM glutamate, Fluo-4 AM, FLIPR384
Method: Antagonist constants are determined as follows. The compounds of the invention were tested in a fluorescence laser imaging plate reader based assay. This assay is a common functional assay to monitor Ca2+ mobilization in whole cells expressing recombinant receptor coupled with a promiscuous G-protein. CHO dhfr-cells stably expressing recombinant human mGluR2 and Gα16 loaded with Fluo-4 AM (Invitrogen, Carlsbad Calif.) were treated with various concentrations of antagonists of compounds and the Ca2+ response was monitored on a FLIPR384 (Molecular Devices, Sunnydale Calif.) for agonist activity. Then 2,500 nM glutamate was added and the antagonist response was monitored. The maximum calcium response at each concentration of compound for agonist or antagonist were plotted as dose responses and the curves were fitted with a four parameter logistic equation giving IC50 and Hill coefficient using the iterative non linear curve fitting software ADA (Merck & Co). Data in the following table represent activities in the antagonist assay.

Chain of recombinant human mGluR2 (Q14416 19-872): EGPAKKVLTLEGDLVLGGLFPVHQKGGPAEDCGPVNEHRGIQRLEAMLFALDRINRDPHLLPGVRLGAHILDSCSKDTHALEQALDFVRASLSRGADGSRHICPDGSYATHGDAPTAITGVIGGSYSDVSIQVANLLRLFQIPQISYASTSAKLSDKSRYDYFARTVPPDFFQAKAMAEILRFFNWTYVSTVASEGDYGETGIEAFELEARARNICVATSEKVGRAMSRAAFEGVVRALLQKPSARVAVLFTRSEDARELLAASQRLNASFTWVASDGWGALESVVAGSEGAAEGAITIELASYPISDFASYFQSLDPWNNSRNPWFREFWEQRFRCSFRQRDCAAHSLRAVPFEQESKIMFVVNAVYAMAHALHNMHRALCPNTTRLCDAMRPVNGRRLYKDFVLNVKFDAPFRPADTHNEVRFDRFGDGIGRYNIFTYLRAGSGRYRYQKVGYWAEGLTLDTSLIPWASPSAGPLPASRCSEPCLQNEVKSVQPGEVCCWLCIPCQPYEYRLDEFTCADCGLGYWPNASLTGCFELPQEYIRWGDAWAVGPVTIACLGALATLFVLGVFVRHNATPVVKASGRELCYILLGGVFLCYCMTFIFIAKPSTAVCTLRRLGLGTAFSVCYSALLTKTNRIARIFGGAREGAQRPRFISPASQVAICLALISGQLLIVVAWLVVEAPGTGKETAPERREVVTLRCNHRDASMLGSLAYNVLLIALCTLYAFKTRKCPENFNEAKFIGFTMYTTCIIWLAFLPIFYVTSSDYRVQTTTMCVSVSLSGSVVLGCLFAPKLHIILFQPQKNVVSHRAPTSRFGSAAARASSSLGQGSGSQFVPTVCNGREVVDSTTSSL

Row | Structure (SMILES) | IC50 [nM]
1 | CC1c2nc(C(N)=O)cc(-c3ccc(F)cc3F)c2CCN1Cc1ccnn1C(C)C (single isomer, unassigned) [Example 1-15B, (R) or (S)-4-(2,4-difluorophenyl)-8-methyl-7-{[1-(1-methylethyl)-1H-pyrazol-5-yl]methyl}-5,6,7,8-tetrahydro-1,7-naphthyridine-2-carboxamide] | 5.3
2 | NC(=O)c1cc(-c2ccc(F)cc2F)c2c(n1)CN(CC(O)c1ccccc1)CC2 (single isomer, unassigned) [Example 8-3B, (R) or (S)-4-(2,4-difluorophenyl)-7-[(2R or 2S)-2-hydroxy-2-phenylethyl]-5,6,7,8-tetrahydro-1,7-naphthyridine-2-carboxamide] | 12.7
3 | CC1(C)CC(CN2CCc3c(-c4ccc(Cl)cc4F)cc(C(N)=O)nc3C2)CCO1 (single isomer, unassigned) [Example 1-5A, (R) or (S)-4-(4-chloro-2-fluorophenyl)-7-((2,2-dimethyltetrahydro-2H-pyran-4-yl)methyl)-5,6,7,8-tetrahydro-1,7-naphthyridine-2-carboxamide] | 5.6
4 | NC(=O)c1cc(N2CCCC(F)C2)c2c(n1)CN(Cc1ccnc(C(F)(F)F)c1)CC2 (single isomer, unassigned) [Example 5-6B, (R) or (S)-4-(3-fluoropiperidin-1-yl)-7-((2-(trifluoromethyl)pyridin-4-yl)methyl)-5,6,7,8-tetrahydro-1,7-naphthyridine-2-carboxamide] | 17.3
5 | CC1(C)CC(O)(CN2CCc3c(-c4ccc(F)cc4F)cc(C(N)=O)nc3C2(C)C)CO1 (single isomer, unassigned) [Example 15-1B] | 23.6
6 | CC(C)n1nccc1CN1CCc2c(-c3ccc(F)cc3F)cc(C(N)=O)nc2C1 [Example 1-9, 4-(2,4-difluorophenyl)-7-{[1-(1-methylethyl)-1H-pyrazol-5-yl]methyl}-5,6,7,8-tetrahydro-1,7-naphthyridine-2-carboxamide] | 8.2
7 | NC(=O)c1cc(-c2ccc(F)cc2F)c2c(n1)CN(CC(O)c1ccccc1)CC2 (racemic) [Example 8-1A, (S) and (R)-4-(2,4-difluorophenyl)-7-(2-hydroxy-2-phenylethyl)-5,6,7,8-tetrahydro-1,7-naphthyridine-2-carboxamide] | 18.5
8 | Cc1conc1CN1CCc2c(-c3ccc(F)cc3F)cc(C(N)=O)nc2C1 [Example 2-26, 4-(2,4-difluorophenyl)-7-[(4-methylisoxazol-3-yl)methyl]-5,6,7,8-tetrahydro-1,7-naphthyridine-2-carboxamide] | 13.1
9 | Cc1cc(-c2cc(C(N)=O)nc3c2CCN(Cc2ccnc(C(F)(F)F)c2)C3)ccn1 [Example 2-14, 4-(2-methylpyridin-4-yl)-7-{[2-(trifluoromethyl)pyridin-4-yl]methyl}-5,6,7,8-tetrahydro-1,7-naphthyridine-2-carboxamide] | 153
10 | CC1(C)CC(O)(CN2CCc3c(-c4ccc(F)cc4F)cc(C(N)=O)nc3C2(C)C)CO1 (single isomer, unassigned) [Example 15-1A] | 24.9
11 | NC(=O)c1cc(-c2cnn(C(F)F)c2)c2c(n1)CN(Cc1ccnc(C3CC3)c1)CC2 [Example 2-9, 7-[(2-cyclopropylpyridin-4-yl)methyl]-4-[1-(difluoromethyl)-1H-pyrazol-4-yl]-5,6,7,8-tetrahydro-1,7-naphthyridine-2-carboxamide] | 10.8
12 | Cc1cnn(C)c1CN1CCc2c(-c3ccc(F)cc3F)cc(C(N)=O)nc2C1 [Example 1-10, 4-(2,4-difluorophenyl)-7-[(1,4-dimethyl-1H-pyrazol-5-yl)methyl]-5,6,7,8-tetrahydro-1,7-naphthyridine-2-carboxamide] | 21.8
13 | Cc1cc(CN2CCc3c(-c4ccc(F)cc4F)cc(C(N)=O)nc3C2)n(C)n1 [Example 1-7, 4-(2,4-difluorophenyl)-7-[(1,3-dimethyl-1H-pyrazol-5-yl)methyl]-5,6,7,8-tetrahydro-1,7-naphthyridine-2-carboxamide] | 13.8
